Results from US8178544B2, “2, 3-diamino-quinazolinone derivatives and their medical use” (Neurosearch A/S, priority 2007, dated 2012).

Molecular target: T1, human Kv7.2+Kv7.3 channels (Homo sapiens, UniProt O43525+O43526)
T1 construct: expressed in transfected cells; host or cells: HEK293
Experiment: Patch-clamp on HEK293 cell lines stably expressing human Kv7.2+Kv7.3 channels
Assay type: cell-based
Details: current relative to baseline current defined as 100%, HEK293 cells, test concentration not given
From the text: The effect obtained by these channel activators is described as a percentage increase in baseline current at a given concentration. The baseline current is defined as 100%, and an increase in current is expressed relative to this, i.e. an increase from 1 nA to 1.2 nA is reported as 120%.

| IK (%) at −30 mV, 1 s | SMILES |
| --- | --- |
| 290% | CCN(CC)c1nc2ccccc2c(=O)n1NC(=O)Cc1cc(F)cc(F)c1 [Compound D2, N-(2-Diethylamino-4-oxo-4H-quinazolin-3-yl)-2-(3,5-difluoro-phenyl)-acetamide] |
| 110% | CCN(CC)c1nc2ccc(O)cc2c(=O)n1NC(=O)Cc1cc(F)cc(F)c1 [Compound F1, N-(2-Diethylamino-6-hydroxy-4-oxo-4H-quinazolin-3-yl)-2-(3,5-difluoro-phenyl)-acetamide] |

Further lines, the molecule ahead of its results:

| SMILES | IK (%) at −30 mV, 1 s |
| --- | --- |
| O=C(Cc1cc(F)cc(F)c1)Nn1c(N2CCCC2)nc2ccccc2c1=O [Compound C1, 2-(3,5-Difluoro-phenyl)-N-(4-oxo-2-pyrrolidin-1-yl-4H-quinazolin-3-yl)-acetamide] | 150% |
| CCN(CC)c1nc2ccccc2c(=O)n1NC(=O)Cc1ccc(Cl)cc1 [Compound C3, 2-(4-Chloro-phenyl)-N-(2-diethylamino-4-oxo-4H-quinazolin-3-yl)-acetamide] | 144% |
| CC(C(=O)Nn1c(N(C)C)nc2cc(C(F)(F)F)ccc2c1=O)c1cc(F)cc(F)c1 (stereo not shown) [Compound C5, 2-(3,5-Difluoro-phenyl)-N-(2-dimethylamino-4-oxo-7-trifluoromethyl-4H-quinazolin-3yl)-propionamide] | 143% |
| O=C(Cc1ccc(C(F)(F)F)c(F)c1)Nn1c(N2CCCC2)nc2ccccc2c1=O [Compound C11, 2-(3-Fluoro-4-trifluoromethyl-phenyl)-N-(4-oxo-2-pyrrolidin-1-yl-4H-quinazolin-3-yl)-acetamide] | 153% |
| CCN(CC)c1nc2ccc(F)cc2c(=O)n1NC(=O)Cc1cc(F)cc(F)c1 [Compound C19, N-(2-Diethylamino-6-fluoro-4-oxo-4H-quinazolin-3-yl)-2-(3,5-difluoro-phenyl)-acetamide] | 215% |
